Measured values published in ChEMBL document CHEMBL4831492, “Design and synthesis of 2-(2-isonicotinoylhydrazineylidene)propanamides as InhA inhibitors with high antitubercular activity” (Eur J Med Chem, 2021).
In brackets after ≈: the same amount, converted by molar mass. Activity calls are given as the source filed them. The calls are words filed in the database; no cut-off is given here.

Legend:
[1] = system: Mycobacterium kansasii; experiment: Antimycobacterial activity against drug resistant Mycobacterium kansasii 6509/96 assessed as minimal inhibitory concentration required for complete inhibition of mycobacterial growth incubated for 7 days; type: functional; settings: 6509/96, 168 h, time 7 day
[2] = Selectivity index, ratio of CC50 for cytotoxicity against human HepG2 cells to MIC for antimycobacterial activity against drug susceptible Mycobacterium tuberculosis H37Rv; type: toxicity, cell-based; settings: read-out: Selectivity Index
[3] = system: Mycobacterium tuberculosis; experiment: Antimycobacterial activity against drug susceptible Mycobacterium tuberculosis H37Rv assessed as minimal inhibitory concentration required for complete inhibition of mycobacterial growth incubated for 21 days; type: functional; settings: 504 h, time 21 day
[4] = system: Mycobacterium tuberculosis; experiment: Antimycobacterial activity against drug susceptible Mycobacterium tuberculosis H37Rv assessed as minimal inhibitory concentration required for complete inhibition of mycobacterial growth incubated for 14 days; type: functional; settings: 336 h, time 14 day
[5] = system: Mycobacterium kansasii; experiment: Antimycobacterial activity against drug resistant Mycobacterium kansasii 6509/96 assessed as minimal inhibitory concentration required for complete inhibition of mycobacterial growth incubated for 14 days; type: functional; settings: 6509/96, 336 h, time 14 day
[6] = system: HepG2; experiment: Cytotoxicity against human HepG2 cells assessed as reduction in cell viability incubated overnight followed by compound washout by MTT assay; type: cell-based
[7] = system: Mycobacterium kansasii; experiment: Antimycobacterial activity against drug resistant Mycobacterium kansasii 235/80 assessed as minimal inhibitory concentration required for complete inhibition of mycobacterial growth incubated for 7 days; type: functional; settings: 235/80, 168 h, time 7 day
[8] = system: Mycobacterium kansasii; experiment: Antimycobacterial activity against drug resistant Mycobacterium kansasii 235/80 assessed as minimal inhibitory concentration required for complete inhibition of mycobacterial growth incubated for 14 days; type: functional; settings: 235/80, 336 h, time 14 day
[9] = system: Mycobacterium kansasii; experiment: Antimycobacterial activity against drug resistant Mycobacterium kansasii 235/80 assessed as minimal inhibitory concentration required for complete inhibition of mycobacterial growth incubated for 21 days; type: functional; settings: 235/80, 504 h, time 21 day
[10] = system: Mycobacterium avium; experiment: Antimycobacterial activity against drug resistant Mycobacterium avium 330/88 assessed as minimal inhibitory concentration required for complete inhibition of mycobacterial growth incubated for 14 days; type: functional; settings: 330/88, 336 h, time 14 day
[11] = system: HepG2; experiment: Cytostatic activity in human HepG2 cells assessed as reduction in cell viability incubated overnight followed by compound washout and further incubated for 72 hrs in medium containing serum by MTT assay; type: functional, cell-based; settings: HepG2, 72 h
[12] = Selectivity index, ratio of CC50 for cytotoxicity against human HepG2 cells to MIC for antimycobacterial activity against drug susceptible Mycobacterium […]; type: toxicity, cell-based; settings: read-out: Selectivity Index
[13] = system: Mycobacterium kansasii; experiment: Antimycobacterial activity against drug resistant Mycobacterium kansasii 6509/96 assessed as minimal inhibitory concentration required for complete inhibition of mycobacterial growth incubated for 21 days; type: functional; settings: 6509/96, 504 h, time 21 day
[14] = system: Mycobacterium avium; experiment: Antimycobacterial activity against drug resistant Mycobacterium avium 330/88 assessed as minimal inhibitory concentration required for complete inhibition of mycobacterial growth incubated for 21 days; type: functional; settings: 330/88, 504 h, time 21 day
[15] = system: Mycobacterium tuberculosis; experiment: Inhibition of mycolic acid synthesis in Mycobacterium tuberculosis H37Ra assessed as decrease in production of trehalose monomycolates at MIC incubated for 24 hrs followed by 14C labelling and further incubated for 24 hrs by TLC based autoradiography analysis; type: functional, organism-based; settings: time 48.0 hrs
[16] = system: Mycobacterium tuberculosis; experiment: Inhibition of mycolic acid synthesis in Mycobacterium tuberculosis H37Ra assessed as decrease in production of trehalose dimycolates at MIC incubated for 24 hrs followed by 14C labelling and further incubated for 24 hrs by TLC based autoradiography analysis; type: functional, organism-based; settings: time 48.0 hrs
[17] = system: Mycobacterium tuberculosis; experiment: Inhibition of mycolic acid synthesis in Mycobacterium tuberculosis H37Ra assessed as decrease in production of standard fatty acid at MIC incubated for 24 hrs followed by 14C labelling and further incubated for 24 hrs by TLC based autoradiography analysis; type: functional, organism-based; settings: time 48.0 hrs
[18] = system: Mycobacterium tuberculosis; experiment: Inhibition of mycolic acid synthesis in Mycobacterium tuberculosis H37Ra assessed as decrease in production of mycolic acid at MIC incubated for 24 hrs followed by 14C addition and further incubated for 24 hrs by TLC based autoradiography analysis; type: functional, organism-based; settings: time 48.0 hrs
[19] = system: Mycobacterium tuberculosis; experiment: Antimycobacterial activity against Mycobacterium tuberculosis H37Ra carrying pMC261/pVV16 plasmid assessed as bacterial growth inhibition incubated for 28 days by drop dilution method; type: functional; settings: 672 h, time 28 day
[20] = system: Mycobacterium avium; experiment: Antimycobacterial activity against drug resistant Mycobacterium avium 330/88 assessed as inhibition of mycobacterial growth at 125 uM incubated for 21 days; type: functional, organism-based; settings: time 21.0 day
[21] = system: Mycobacterium avium; experiment: Antimycobacterial activity against drug resistant Mycobacterium avium 330/88 assessed as inhibition of mycobacterial growth at 125 uM incubated for 14 days; type: functional, organism-based; settings: time 14.0 day
[22] = system: Mycobacterium avium; experiment: Antimycobacterial activity against drug resistant Mycobacterium avium 330/88 assessed as inhibition of mycobacterial growth at 500 uM incubated for 21 days; type: functional, organism-based; settings: time 21.0 day
[23] = system: Mycobacterium avium; experiment: Antimycobacterial activity against drug resistant Mycobacterium avium 330/88 assessed as inhibition of mycobacterial growth at 500 uM incubated for 14 days; type: functional, organism-based; settings: time 14.0 day

Compound | MIC [1] | selectivity ratio [2] | MIC [3] | MIC [4] | MIC [5] | IC50 [6] | MIC [7] | MIC [8] | MIC [9] | MIC [10] | IC50 [11] | selectivity ratio [12] | MIC [13] | MIC [14] | further results
C/C(=N\NC(=O)c1ccncc1)C(=O)O [PYRUVIC ACID ISONIAZID] | 8 µM (≈ 1.66 µg/mL) | > 50 | 1 µM (≈ 0.207 µg/mL) | 1 µM (≈ 0.207 µg/mL) | 16 µM (≈ 3.32 µg/mL) | > 50 µM | 8 µM (≈ 1.66 µg/mL) | 16 µM (≈ 3.32 µg/mL) | 16 µM (≈ 3.32 µg/mL) | 500 µM (≈ 104 µg/mL) | > 50 µM | > 3.12 | 16 µM (≈ 3.32 µg/mL) | > 1000 µM | –
C/C(=N\NC(=O)c1ccncc1)C(=O)Nc1ccc(Cl)cc1 | 4 µM (≈ 1.27 µg/mL) | > 200 | 0.25 µM (≈ 0.0792 µg/mL) | 0.25 µM (≈ 0.0792 µg/mL) | 8 µM (≈ 2.53 µg/mL) | > 50 µM | 16 µM (≈ 5.07 µg/mL) | 16 µM (≈ 5.07 µg/mL) | 16 µM (≈ 5.07 µg/mL) | 250 µM (≈ 79.2 µg/mL) | > 50 µM | > 3.12 | 16 µM (≈ 5.07 µg/mL) | 250 µM (≈ 79.2 µg/mL) | –
C/C(=N\NC(=O)c1ccncc1)C(=O)Nc1ccc(I)cc1 | 2 µM (≈ 0.816 µg/mL) | > 200 | 0.25 µM (≈ 0.102 µg/mL) | 0.25 µM (≈ 0.102 µg/mL) | 4 µM (≈ 1.63 µg/mL) | > 50 µM | 8 µM (≈ 3.27 µg/mL) | 8 µM (≈ 3.27 µg/mL) | 8 µM (≈ 3.27 µg/mL) | 250 µM (≈ 102 µg/mL) | > 50 µM | > 12.5 | 4 µM (≈ 1.63 µg/mL) | 250 µM (≈ 102 µg/mL) | inhibition [15]: Active; inhibition [16]: Active; inhibition [17]: inactive; inhibition [18]: Active; MIC [19]: 0.5 µM (≈ 0.204 µg/mL)
C/C(=N\NC(=O)c1ccncc1)C(=O)Nc1ccc(C(F)(F)F)cc1 | 2 µM (≈ 0.701 µg/mL) | > 1670 | ≤ 0.03 µM | ≤ 0.03 µM | 4 µM (≈ 1.4 µg/mL) | > 50 µM | 8 µM (≈ 2.8 µg/mL) | 16 µM (≈ 5.6 µg/mL) | 32 µM (≈ 11.2 µg/mL) | – | > 50 µM | > 12.5 | 4 µM (≈ 1.4 µg/mL) | – | Activity [20]: inactive; Activity [21]: inactive
C/C(=N\NC(=O)c1ccncc1)C(=O)Nc1cc(Cl)cc(Cl)c1 | 16 µM (≈ 5.62 µg/mL) | > 200 | 0.25 µM (≈ 0.0878 µg/mL) | ≤ 0.25 µM | 16 µM (≈ 5.62 µg/mL) | > 50 µM | > 250 µM | > 250 µM | > 250 µM | > 250 µM | > 50 µM | > 1.56 | 32 µM (≈ 11.2 µg/mL) | > 250 µM | –
C/C(=N\NC(=O)c1ccncc1)C(=O)Nc1cccc(F)c1 | 2 µM (≈ 0.601 µg/mL) | – | 0.25 µM (≈ 0.0751 µg/mL) | 0.25 µM (≈ 0.0751 µg/mL) | 4 µM (≈ 1.2 µg/mL) | – | – | – | – | – | – | – | 8 µM (≈ 2.4 µg/mL) | – | Activity [22]: inactive; Activity [23]: inactive
C/C(=N\NC(=O)c1ccncc1)C(=O)Nc1cccc(OC(F)(F)F)c1 | 4 µM (≈ 1.47 µg/mL) | – | 0.5 µM (≈ 0.183 µg/mL) | 0.125 µM (≈ 0.0458 µg/mL) | 8 µM (≈ 2.93 µg/mL) | – | – | – | – | – | – | – | 8 µM (≈ 2.93 µg/mL) | – | Activity [22]: inactive; Activity [23]: inactive
C/C(=N\NC(=O)c1ccncc1)C(=O)Nc1ccc(Cl)c(Cl)c1 | 4 µM (≈ 1.4 µg/mL) | > 833 | 0.06 µM (≈ 0.0211 µg/mL) | 0.06 µM (≈ 0.0211 µg/mL) | 8 µM (≈ 2.81 µg/mL) | > 50 µM | > 250 µM | > 250 µM | > 250 µM | > 250 µM | > 50 µM | > 3.12 | 16 µM (≈ 5.62 µg/mL) | > 250 µM | –
C/C(=N\NC(=O)c1ccncc1)C(=O)Nc1ccc(C(F)(F)C(F)(F)C(F)(F)C(F)(F)C(F)(F)C(F)(F)C(F)(F)C(F)(F)F)cc1 | > 1000 µM | – | 0.5 µM (≈ 0.35 µg/mL) | 0.25 µM (≈ 0.175 µg/mL) | > 1000 µM | – | – | – | – | > 1000 µM | – | – | > 1000 µM | > 1000 µM | –
C/C(=N\NC(=O)c1ccncc1)C(=O)Nc1cccc(I)c1 | 4 µM (≈ 1.63 µg/mL) | – | 0.5 µM (≈ 0.204 µg/mL) | 0.125 µM (≈ 0.051 µg/mL) | 8 µM (≈ 3.27 µg/mL) | – | – | – | – | > 1000 µM | – | – | 8 µM (≈ 3.27 µg/mL) | > 1000 µM | –
